According to patent EP0040696B1, “Aminothiadiazoles as gastric secretion inhibitors” (Merck & Co., Inc., priority 1980, dated 1981):

Assays:
[1] = system: histamine evoked gastric secretion; experiment: Inhibition of histamine evoked gastric secretion in dogs with a chronic gastric fistula; format: in vivo, female beagle dogs; conditions: Canis lupus familiaris, iv, 0.5 h, read-out: IV ED50 (mg/kg) Total acid output
Method: […] Studies are performed in female beagle dogs with a chronic gastric fistula. The test compounds are administered i.v. at 0 min. Gastric secretion is stimulated by administration of a maximal secretory dose of histamine dihydrochloride ([…], base, s.c.) at 0 min. Gastric output is collected by gravity drainage for three 30 min periods (0-30, 30-60 and 60-90 min). Output volume (ml) is measured and an aliquot is titrated to pH 7 to determine acid concentration (titratable acid mEq/L); total acid output (mEq) is calculated as the product of volume and acid concentration. […]. Percent.inhibition of volume, acid concentration and total acid output is calculated relative to a placebo trial in the same animals; ED50 values are determined by linear regression analysis.

gastric secretion = experiment: Gastric secretion inhibitory activity of intermediate compounds (test not specified)
Description: Thus, such intermediate compounds are deemed to constitute part of this invention.

Compound | ED50 [1] [mg/kg] | gastric secretion inhibitory activity (gastric secretion)
CNC(=NCCSCc1[nH]cnc1C)NC#N [D, N-Cyano-N'-methyl-N''-[2-((4-methyl-5-imidazolyl)methylthio)ethyl]guanidine] | 1.8 | –
CCOC1=NS(=O)(=O)N=C1NCCSCc1ccc(CN(C)C)o1 [3-N-[2-[(5-dimethylaminomethyl-2-furanyl)methylthio]ethyl]amino-4-ethoxy-1,2,5-thiadiazde-1,1-dioxide] | – | substantial gastric secretion inhibitory activity
CN(C)Cc1ccc(CSCCNc2n[nH]c(N)n2)o1 [C, 3-N-[2-[(5-Dimethylaminomethyl-2-furanyl)methylthio]ethyl]amino-5-amino-1,2,4-triazole] | 1.1 | –
CCOc1n[s+]([O-])nc1NCCSCc1ccc(CN(C)C)o1 (stereo not shown) [3-N-[2-[(5-dimethylaminomethyl-2-furanyl)methylthio]ethyl]amino-4-ethoxy-1,2,5-thiadiazole-1-oxide] | – | substantial gastric secretion inhibitory activity
